Data: paper PMC9898036, “VIP152 is a selective CDK9 inhibitor with pre-clinical in vitro and in vivo efficacy in chronic lymphocytic leukemia” (Leukemia, 2022)
Where two headings read alike, the source gives them in different places.

Legend:
Test in all cases: DiscoverX KINOMEscan kinase profiling (468 assays)
Assay type in all cases: binding
human kinome [1] = molecular target: human kinome (Homo sapiens, UniProt Q12852); settings: DLK (Entrez MAP3K12); 100 nM; read-out: Percent Control
Outline: (§1)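 VIP152 was run in DMSO, alongside a DMSO control. Readout was qPCR of DNA-tagged kinase still bound to bead-immobilized biotinylated kinase ligands after compound competition.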

human kinome [2] = molecular target: human kinome (Homo sapiens, UniProt Q15303); settings: ERBB4; 100 nM; read-out: Percent Control
Outline: as §1

human kinome [3] = molecular target: human kinome (Homo sapiens, UniProt O14920); settings: IKK-beta (Entrez IKBKB); 100 nM; read-out: Percent Control
Outline: as §1

human kinome [4] = molecular target: human kinome (Homo sapiens, UniProt P07949, V804M); settings: kinase RET(V804M) (Entrez RET); compound concentration 1000 nM; read-out: Percent Control
Outline: as §1

human kinome [5] = molecular target: human kinome (Homo sapiens, UniProt P54760); settings: EPHB4; 100 nM; read-out: Percent Control
Outline: as §1

human kinome [6] = molecular target: human kinome (Homo sapiens, UniProt O00444); settings: read-out: Percent Control
Outline: as §1

human kinome [7] = molecular target: human kinome (Homo sapiens, UniProt P33981); settings: kinase TTK (Entrez TTK); compound concentration 1000 nM; read-out: Percent Control
Outline: as §1

human kinome [8] = molecular target: human kinome (Homo sapiens, UniProt O14578); settings: CIT; 100 nM; read-out: Percent Control
Outline: as §1

human kinome [9] = molecular target: human kinome (Homo sapiens, UniProt Q14164); settings: IKK-epsilon (Entrez IKBKE); 100 nM; read-out: Percent Control
Outline: as §1

human kinome [10] = molecular target: human kinome (Homo sapiens, UniProt O75582); settings: compound concentration 1000 nM, read-out: Percent Control
Outline: as §1

human kinome [11] = molecular target: human kinome (Homo sapiens, UniProt Q00526); settings: CDK3; 100 nM; read-out: Percent Control
Outline: as §1

human kinome [12] = molecular target: human kinome (Homo sapiens, UniProt O95835); settings: LATS1; 100 nM; read-out: Percent Control
Outline: as §1

human kinome [13] = molecular target: human kinome (Homo sapiens, UniProt P51451); settings: BLK; 100 nM; read-out: Percent Control
Outline: as §1

human kinome [14] = molecular target: human kinome (Homo sapiens, UniProt P51813); settings: BMX; 100 nM; read-out: Percent Control
Outline: as §1

human kinome [15] = molecular target: human kinome (Homo sapiens, UniProt P22607, G697C); settings: FGFR3(G697C); 100 nM; read-out: Percent Control
Outline: as §1

human kinome [16] = molecular target: human kinome (Homo sapiens, UniProt O96017); settings: CHEK2; 100 nM; read-out: Percent Control
Outline: as §1

human kinome [17] = settings: for Percent Control: 100 nM
Outline: as §1

human kinome [18] = molecular target: human kinome (Homo sapiens, UniProt Q5S007, G2019S); settings: LRRK2(G2019S); 100 nM; read-out: Percent Control
Outline: as §1

human kinome [19] = molecular target: human kinome (Homo sapiens, UniProt P78356); settings: read-out: Percent Control
Outline: as §1

human kinome [20] = molecular target: human kinome (Homo sapiens, UniProt Q07912); settings: kinase TNK2 (Entrez TNK2); compound concentration 1000 nM; read-out: Percent Control
Outline: as §1

human kinome [21] = molecular target: human kinome (Homo sapiens, UniProt O96013); settings: read-out: Percent Control
Outline: as §1

human kinome [22] = molecular target: human kinome (Homo sapiens, UniProt P42336, Q546K); settings: read-out: Percent Control
Outline: as §1

human kinome [23] = molecular target: human kinome (Homo sapiens, UniProt P00533, DEL746-750); settings: EGFR(E746-A750del); 100 nM; read-out: Percent Control
Outline: as §1

human kinome [24] = molecular target: human kinome (Homo sapiens, UniProt Q12866); settings: MERTK; 100 nM; read-out: Percent Control
Outline: as §1

human kinome [25] = molecular target: human kinome (Homo sapiens, UniProt P36888, N841I); settings: FLT3(N841I); 100 nM; read-out: Percent Control
Outline: as §1

human kinome [26] = molecular target: human kinome (Homo sapiens, UniProt Q13546); settings: kinase RIPK1 (Entrez RIPK1); compound concentration 1000 nM; read-out: Percent Control
Outline: as §1

human kinome [27] = molecular target: human kinome (Homo sapiens, UniProt Q86UE8); settings: kinase TLK2 (Entrez TLK2); compound concentration 1000 nM; read-out: Percent Control
Outline: as §1

human kinome [28] = molecular target: human kinome (Homo sapiens, UniProt P07332); settings: FES; 100 nM; read-out: Percent Control
Outline: as §1

human kinome [29] = molecular target: human kinome (Homo sapiens, UniProt Q9UQM7); settings: CAMK2A; 100 nM; read-out: Percent Control
Outline: as §1

Sequence of human kinome (Homo sapiens, UniProt O75582) (O75582 whole entry): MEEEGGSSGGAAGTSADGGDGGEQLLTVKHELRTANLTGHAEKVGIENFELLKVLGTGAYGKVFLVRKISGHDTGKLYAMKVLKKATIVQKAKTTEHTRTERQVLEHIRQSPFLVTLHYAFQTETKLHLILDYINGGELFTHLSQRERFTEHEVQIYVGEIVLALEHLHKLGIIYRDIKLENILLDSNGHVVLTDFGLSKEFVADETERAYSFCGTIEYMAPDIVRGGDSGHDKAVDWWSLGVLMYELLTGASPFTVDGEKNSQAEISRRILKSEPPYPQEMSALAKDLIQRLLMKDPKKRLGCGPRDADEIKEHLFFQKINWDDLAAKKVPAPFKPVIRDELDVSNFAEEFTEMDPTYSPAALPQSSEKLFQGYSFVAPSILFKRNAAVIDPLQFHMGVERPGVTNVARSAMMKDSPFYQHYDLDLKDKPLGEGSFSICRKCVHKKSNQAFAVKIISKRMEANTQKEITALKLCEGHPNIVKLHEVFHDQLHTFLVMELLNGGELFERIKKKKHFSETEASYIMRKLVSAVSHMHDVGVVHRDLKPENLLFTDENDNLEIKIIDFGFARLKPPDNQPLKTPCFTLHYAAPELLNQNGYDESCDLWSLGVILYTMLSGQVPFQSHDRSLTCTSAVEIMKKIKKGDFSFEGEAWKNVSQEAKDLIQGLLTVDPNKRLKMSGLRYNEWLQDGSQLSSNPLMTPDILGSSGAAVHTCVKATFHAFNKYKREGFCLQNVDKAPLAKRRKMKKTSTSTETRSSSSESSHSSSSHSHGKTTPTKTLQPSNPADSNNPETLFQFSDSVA
Sequence of human kinome (Homo sapiens, UniProt P78356) (P78356 whole entry): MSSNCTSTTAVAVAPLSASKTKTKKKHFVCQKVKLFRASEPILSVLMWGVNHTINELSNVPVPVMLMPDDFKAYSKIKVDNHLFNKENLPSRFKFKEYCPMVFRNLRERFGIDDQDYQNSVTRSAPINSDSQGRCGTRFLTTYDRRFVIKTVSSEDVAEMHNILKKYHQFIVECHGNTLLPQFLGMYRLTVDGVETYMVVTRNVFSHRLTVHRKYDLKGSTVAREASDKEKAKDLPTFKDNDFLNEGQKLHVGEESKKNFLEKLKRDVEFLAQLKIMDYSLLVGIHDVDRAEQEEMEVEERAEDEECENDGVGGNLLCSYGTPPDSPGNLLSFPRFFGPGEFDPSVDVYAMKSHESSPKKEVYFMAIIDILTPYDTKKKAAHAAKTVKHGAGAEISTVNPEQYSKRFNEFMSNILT
Sequence of human kinome (Homo sapiens, UniProt O00444) (O00444 whole entry): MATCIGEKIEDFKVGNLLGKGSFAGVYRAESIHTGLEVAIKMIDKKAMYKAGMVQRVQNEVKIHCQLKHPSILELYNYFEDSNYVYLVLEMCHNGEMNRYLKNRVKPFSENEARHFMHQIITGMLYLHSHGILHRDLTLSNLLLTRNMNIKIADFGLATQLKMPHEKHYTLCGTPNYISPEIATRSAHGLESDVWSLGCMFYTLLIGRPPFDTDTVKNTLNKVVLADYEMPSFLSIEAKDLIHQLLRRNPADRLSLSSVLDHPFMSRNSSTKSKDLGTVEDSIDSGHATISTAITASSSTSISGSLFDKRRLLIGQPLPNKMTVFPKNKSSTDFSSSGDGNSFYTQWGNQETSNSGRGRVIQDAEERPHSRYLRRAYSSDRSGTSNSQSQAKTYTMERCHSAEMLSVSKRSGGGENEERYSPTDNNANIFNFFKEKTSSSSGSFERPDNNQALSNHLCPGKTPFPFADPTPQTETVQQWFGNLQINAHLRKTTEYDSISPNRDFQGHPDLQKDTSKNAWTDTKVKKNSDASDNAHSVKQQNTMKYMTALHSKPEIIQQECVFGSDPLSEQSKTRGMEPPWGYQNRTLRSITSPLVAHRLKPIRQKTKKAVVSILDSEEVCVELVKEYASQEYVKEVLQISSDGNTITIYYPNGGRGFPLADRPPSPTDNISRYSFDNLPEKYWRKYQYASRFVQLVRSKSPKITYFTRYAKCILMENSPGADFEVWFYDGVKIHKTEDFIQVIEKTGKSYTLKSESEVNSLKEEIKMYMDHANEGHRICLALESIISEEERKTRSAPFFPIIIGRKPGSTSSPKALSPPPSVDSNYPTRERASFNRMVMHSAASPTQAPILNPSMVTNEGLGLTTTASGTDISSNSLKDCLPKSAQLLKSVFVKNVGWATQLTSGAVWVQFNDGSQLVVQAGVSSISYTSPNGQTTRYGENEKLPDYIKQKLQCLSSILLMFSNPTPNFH
Sequence of human kinome (Homo sapiens, UniProt O96013) (O96013 whole entry): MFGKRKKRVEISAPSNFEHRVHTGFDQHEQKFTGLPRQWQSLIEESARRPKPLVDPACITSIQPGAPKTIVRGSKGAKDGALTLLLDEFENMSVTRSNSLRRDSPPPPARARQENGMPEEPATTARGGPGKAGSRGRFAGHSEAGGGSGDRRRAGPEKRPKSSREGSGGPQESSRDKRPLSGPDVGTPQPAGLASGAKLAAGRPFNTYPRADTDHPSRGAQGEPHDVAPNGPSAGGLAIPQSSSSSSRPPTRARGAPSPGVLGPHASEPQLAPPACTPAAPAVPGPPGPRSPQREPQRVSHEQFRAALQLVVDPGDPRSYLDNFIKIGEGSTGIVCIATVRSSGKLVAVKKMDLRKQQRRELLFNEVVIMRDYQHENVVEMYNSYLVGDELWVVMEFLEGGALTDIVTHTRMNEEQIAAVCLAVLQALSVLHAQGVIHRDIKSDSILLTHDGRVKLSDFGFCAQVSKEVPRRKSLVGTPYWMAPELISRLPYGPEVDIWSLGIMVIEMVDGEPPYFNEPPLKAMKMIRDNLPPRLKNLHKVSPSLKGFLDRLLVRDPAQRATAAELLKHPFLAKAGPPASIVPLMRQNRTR
Sequence of human kinome (Homo sapiens, UniProt P42336, Q546K) (P42336 whole entry Q546K): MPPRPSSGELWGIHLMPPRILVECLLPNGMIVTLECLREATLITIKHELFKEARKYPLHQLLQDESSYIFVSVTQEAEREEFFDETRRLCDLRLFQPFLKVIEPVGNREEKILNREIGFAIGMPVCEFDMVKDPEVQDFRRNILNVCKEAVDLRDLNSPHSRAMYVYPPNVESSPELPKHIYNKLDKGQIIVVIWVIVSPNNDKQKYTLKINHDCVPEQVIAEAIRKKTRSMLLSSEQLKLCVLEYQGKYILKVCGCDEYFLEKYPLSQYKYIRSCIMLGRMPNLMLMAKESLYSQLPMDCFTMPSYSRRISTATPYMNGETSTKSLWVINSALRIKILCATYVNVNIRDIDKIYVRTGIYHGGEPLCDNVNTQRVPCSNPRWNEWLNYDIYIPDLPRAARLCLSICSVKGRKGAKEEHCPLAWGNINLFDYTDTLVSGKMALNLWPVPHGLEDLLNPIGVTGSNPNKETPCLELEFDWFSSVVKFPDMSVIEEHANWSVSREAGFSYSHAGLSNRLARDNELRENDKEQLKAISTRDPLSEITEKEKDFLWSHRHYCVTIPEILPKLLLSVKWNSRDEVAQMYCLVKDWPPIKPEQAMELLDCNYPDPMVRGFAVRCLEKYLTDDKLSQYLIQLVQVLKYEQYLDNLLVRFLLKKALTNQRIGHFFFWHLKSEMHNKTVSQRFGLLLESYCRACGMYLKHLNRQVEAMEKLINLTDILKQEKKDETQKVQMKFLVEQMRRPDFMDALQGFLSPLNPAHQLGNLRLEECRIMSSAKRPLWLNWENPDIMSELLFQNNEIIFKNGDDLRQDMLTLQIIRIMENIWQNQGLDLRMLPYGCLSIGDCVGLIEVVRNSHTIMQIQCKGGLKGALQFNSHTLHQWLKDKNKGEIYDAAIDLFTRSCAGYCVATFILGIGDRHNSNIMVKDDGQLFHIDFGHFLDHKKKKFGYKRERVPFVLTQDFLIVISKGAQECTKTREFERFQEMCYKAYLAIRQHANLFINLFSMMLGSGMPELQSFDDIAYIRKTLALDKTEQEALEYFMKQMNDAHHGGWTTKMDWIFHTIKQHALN
Sequence of human kinome (Homo sapiens, UniProt Q13546) (Q13546 whole entry): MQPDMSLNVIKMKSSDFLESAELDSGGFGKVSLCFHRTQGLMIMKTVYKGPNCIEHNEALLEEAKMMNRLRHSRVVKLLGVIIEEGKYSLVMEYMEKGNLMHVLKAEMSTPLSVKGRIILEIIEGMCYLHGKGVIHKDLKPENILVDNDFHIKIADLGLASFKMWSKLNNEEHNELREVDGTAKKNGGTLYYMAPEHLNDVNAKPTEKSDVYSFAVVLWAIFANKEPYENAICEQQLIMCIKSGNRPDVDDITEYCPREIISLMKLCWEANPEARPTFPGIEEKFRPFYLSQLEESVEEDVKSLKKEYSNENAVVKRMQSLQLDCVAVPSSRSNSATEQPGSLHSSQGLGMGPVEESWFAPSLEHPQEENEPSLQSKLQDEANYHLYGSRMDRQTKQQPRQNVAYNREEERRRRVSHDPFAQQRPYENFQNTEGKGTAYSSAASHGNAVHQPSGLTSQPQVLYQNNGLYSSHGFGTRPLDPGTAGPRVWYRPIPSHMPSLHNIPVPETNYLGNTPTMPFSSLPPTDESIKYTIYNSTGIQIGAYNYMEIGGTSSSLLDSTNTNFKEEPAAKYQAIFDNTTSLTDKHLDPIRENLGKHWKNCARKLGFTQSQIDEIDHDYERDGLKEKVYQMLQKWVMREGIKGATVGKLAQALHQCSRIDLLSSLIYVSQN
Sequence of human kinome (Homo sapiens, UniProt Q00526) (Q00526 whole entry): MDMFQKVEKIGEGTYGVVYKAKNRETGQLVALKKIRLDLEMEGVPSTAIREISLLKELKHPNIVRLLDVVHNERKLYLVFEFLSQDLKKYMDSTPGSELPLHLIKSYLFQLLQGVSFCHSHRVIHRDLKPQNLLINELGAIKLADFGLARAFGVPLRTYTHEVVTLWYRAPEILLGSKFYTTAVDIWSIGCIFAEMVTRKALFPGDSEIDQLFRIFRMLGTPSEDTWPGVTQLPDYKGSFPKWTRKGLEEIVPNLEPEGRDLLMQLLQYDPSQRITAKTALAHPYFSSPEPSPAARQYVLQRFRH

COc1cc(F)ccc1-c1cc(Nc2cc(CS(C)(=N)=O)ccn2)ncc1F (stereo not shown) [VIP152]
98%: remaining binding at 1 µM (human kinome [27])
99%: Percent Control (human kinome [17]; FLT3(ITD,F691L))
89%: remaining binding at 1 µM (human kinome [21]; kinase PAK4 (Entrez PAK4), compound concentration 1000 nM)
91%: remaining binding at 0.1 µM (human kinome [29])
79%: remaining binding at 1 µM (human kinome [6]; kinase PLK4 (Entrez PLK4), compound concentration 1000 nM) | remaining binding at 1 µM (human kinome [26])
4: Interactions Mapped (human kinome [17]; @100nM, 468 Assays Tested)
66%: remaining binding at 0.1 µM (human kinome [25])
68%: remaining binding at 1 µM (human kinome [7])
100%: remaining binding at 0.1 µM (human kinome [1]) | remaining binding at 0.1 µM (human kinome [2]) | remaining binding at 0.1 µM (human kinome [3]) | remaining binding at 0.1 µM (human kinome [5]) | remaining binding at 0.1 µM (human kinome [6]; PLK4, 100 nM) | remaining binding at 0.1 µM (human kinome [8]) | remaining binding at 0.1 µM (human kinome [9]) | remaining binding at 1 µM (human kinome [10]; kinase RPS6KA5(Kin.Dom.1-N-terminal) (Entrez RPS6KA5)) | remaining binding at 1 µM (human kinome [10]; kinase RPS6KA5(Kin.Dom.2-C-terminal) (Entrez RPS6KA5)) | remaining binding at 0.1 µM (human kinome [11]) | remaining binding at 0.1 µM (human kinome [12]) | remaining binding at 0.1 µM (human kinome [13]) | remaining binding at 0.1 µM (human kinome [14]) | remaining binding at 0.1 µM (human kinome [15]) | remaining binding at 0.1 µM (human kinome [16]) | Percent Control (human kinome [17]; EGFR(L747-E749del, A750P)) | Percent Control (human kinome [17]; EGFR(L747-T751del,Sins)) | Percent Control (human kinome [17]; FLT3(ITD)) | Percent Control (human kinome [17]; FLT3(ITD,D835V)) | remaining binding at 0.1 µM (human kinome [18]) | remaining binding at 0.1 µM (human kinome [19]; PIP5K2B (Entrez PIP4K2B), 100 nM) | remaining binding at 1 µM (human kinome [19]; kinase PIP5K2B (Entrez PIP4K2B), compound concentration 1000 nM) | remaining binding at 0.1 µM (human kinome [21]; PAK4, 100 nM) | remaining binding at 0.1 µM (human kinome [22]; PIK3CA(Q546K), 100 nM) | remaining binding at 0.1 µM (human kinome [23]) | remaining binding at 0.1 µM (human kinome [24]) | remaining binding at 0.1 µM (human kinome [28])
96%: remaining binding at 1 µM (human kinome [22]; kinase PIK3CA(Q546K) (Entrez PIK3CA), compound concentration 1000 nM)
93%: Percent Control (human kinome [17]; EGFR(L747-S752del, P753S))
92%: remaining binding at 1 µM (human kinome [4]) | remaining binding at 1 µM (human kinome [20])
